Results as given in PubChem BioAssay AID504687 (Sanford-Burnham Center for Chemical Genomics, 2011).
Calls of active or inactive are those of the source. How the calls were made is not given here.

Molecular target: Ubiquitin-conjugating enzyme E2 N (Homo sapiens) (UniProt P61088)
Assay: analogue potency against UBC13 ubiquitin chains – biochemical, TR-FRET, SAR follow-up (AID 504687)
Settings: UBC13 polyubiquitin formation

Chain of Ubiquitin-conjugating enzyme E2 N (Homo sapiens) (P61088 whole entry, looked up): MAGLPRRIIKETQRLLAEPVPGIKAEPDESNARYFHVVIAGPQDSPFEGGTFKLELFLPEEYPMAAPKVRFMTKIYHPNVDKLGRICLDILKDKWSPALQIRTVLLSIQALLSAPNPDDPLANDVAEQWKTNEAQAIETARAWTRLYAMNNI

Row | IC50 | SMILES
1 | 4.47 µM | CCN(Cc1ccccc1)S(=O)(=O)c1ccc(C(=O)N(CCCN(C)C)c2nc3cc4c(cc3s2)OCO4)cc1
2 | inactive | CC1CN(S(=O)(=O)c2ccc(NC(=O)CCCCCN3C(=O)c4ccccc4C3=O)cc2)CC(C)O1 (configuration not stated)
3 | 16.4 µM | O=C(CCCCCN1C(=O)c2cccc([N+](=O)[O-])c2C1=O)NCc1ccccc1
4 | 1.9 µM | O=C1c2cccc3cccc(c23)C(=O)N1CC1CCN(CC(O)COCc2ccc3c(c2)OCO3)CC1 (configuration not stated)
5 | 10.7 µM | CN(C)CCCN(C(=O)c1ccc2c(c1)CCCC2)c1nc2ccc(Cl)cc2s1
6 | 6.86 µM | CN(C)CCCN(C(=O)c1ccc(S(=O)(=O)N2CCCC2)cc1)c1nc2ccc(Br)cc2s1
7 | 1.92 µM | O=C(NCCCN1CCN(c2ccc(F)cc2)CC1)C1CCCN(c2ncnc3c2nc2n3CCCCC2)C1 (configuration not stated)
8 | 8.72 µM | COc1ccc(C)c2sc(N(CCCN(C)C)C(=O)c3ccc(S(=O)(=O)N(C)C)cc3)nc12
9 | 4.1 µM | CCOc1cccc2sc(N(CCCN(C)C)C(=O)c3ccc(S(=O)(=O)N4CCc5ccccc5C4)cc3)nc12
10 | 1.63 µM | O=C(CCCCn1c(=O)c2ccccc2n(Cc2ccccc2)c1=O)NC1CCN(Cc2ccccc2)CC1
11 | 2.8 µM | CCc1ccc2nc(N(CCCN(C)C)C(=O)c3ccc(S(=O)(=O)N4CCc5ccccc5C4)cc3)sc2c1
12 | 10.2 µM | O=C(CCCCCN1C(=O)c2ccccc2C1=O)NCCc1nc2ccccc2[nH]1
13 | 5.46 µM | Cc1ccc(C)c(OCC(O)CN2CCN(CCN3C(=O)c4cccc5cccc(c45)C3=O)CC2)c1 (configuration not stated)
14 | 10.6 µM | CC(NC(=O)CCCCCN1C(=O)c2ccccc2C1=O)c1nc(-c2ccccc2)no1 (configuration not stated)
15 | 17.6 µM | O=C1c2cccc3cccc(c23)C(=O)N1CCN1CCN(CC(O)COc2ccccc2)CC1 (configuration not stated)
16 | inactive | O=C(C1CCN(c2ncnc3c2nc2n3CCCCC2)CC1)N1CCOCC1
17 | 6.23 µM | CCCCN(CC)S(=O)(=O)c1ccc(C(=O)N(CCCN(C)C)c2nc3cc(C)cc(C)c3s2)cc1
18 | 3.32 µM | O=C1c2cccc3cccc(c23)C(=O)N1CC1CCN(CC(O)COc2ccc3ccccc3c2)CC1 (configuration not stated)
19 | 2.28 µM | Cc1cc(C)c2sc(N(CCCN(C)C)C(=O)c3ccc(S(=O)(=O)N4CCc5ccccc5C4)cc3)nc2c1

Row | IC50 | SMILES
20 | 15 µM | Cc1nc2ccccc2c(=O)n1NC(=O)c1ccc(OC(F)F)cc1
21 | 0.51 µM | O=C(CCCn1c(=O)c2ccccc2n(Cc2cccc(F)c2)c1=O)NC1CCN(Cc2ccccc2)CC1
22 | > 100 µM (inactive) | CC1CC(C)CN(C(=O)C2CCN(c3ncnc4c3nc3n4CCCCC3)CC2)C1 (configuration not stated)
23 | 1.35 µM | O=C1c2cccc3cccc(c23)C(=O)N1CCN1CCN(CC(O)COc2ccc3ccccc3c2)CC1 (configuration not stated)
24 | 4.28 µM | O=C(NCCCN1CCN(c2ccccc2)CC1)C1CCCN(c2ncnc3c2nc2n3CCCCC2)C1 (configuration not stated)
25 | 12.3 µM | CC1CCCC(C)N1CCCNC(=O)C1CCCN(c2ncnc3c2nc2n3CCCCC2)C1 (configuration not stated)
26 | 2.7 µM | Cc1ccc(-c2oc3ncnc(N)c3c2-c2ccc(C)cc2)cc1
27 | > 100 µM (inactive) | COCCOC(=O)c1ccc(NC(=O)CCCCCN2C(=O)c3ccccc3C2=O)cc1
28 | 1.6 µM | CN(C)CCCN(C(=O)c1ccc(C(=O)c2ccccc2)cc1)c1nc2cc3c(cc2s1)OCCO3
29 | 0.93 µM | O=C(NCC1CCN(Cc2cccc(Cl)c2)CC1)C1CCCN(c2ncnc3c2nc2n3CCCCC2)C1 (configuration not stated)
30 | 2.12 µM | CN(C)CCCN(C(=O)c1ccc(S(=O)(=O)N2CCCCCC2)cc1)c1nc2cc3c(cc2s1)OCCO3
31 | 3.19 µM | CCOc1ccc2nc(N(CCCN(C)C)C(=O)c3ccc(S(=O)(=O)N4CCc5ccccc5C4)cc3)sc2c1
32 | 6.37 µM | CNCc1cc(Br)c(OCC(=O)Nc2ccccc2OC)c(OC)c1
33 | 0.45 µM | O=C(CCCn1c(=O)c2ccccc2n(Cc2ccccc2F)c1=O)NC1CCN(Cc2ccccc2)CC1
34 | 10.5 µM | CC(=O)c1ccccc1OCC(O)CN1CCN(CCN2C(=O)c3cccc4cccc(c34)C2=O)CC1 (configuration not stated)
35 | 7.48 µM | Cc1cc(C)c2sc(N(CCCN(C)C)C(=O)c3ccc(S(=O)(=O)N(C)C4CCCCC4)cc3)nc2c1
36 | 4.75 µM | Cc1ccc(OCC(O)CN2CCN(CCN3C(=O)c4cccc5cccc(c45)C3=O)CC2)c(C)c1 (configuration not stated)
37 | 9.39 µM | Cc1cc(OCC(O)CN2CCN(CCN3C(=O)c4cccc5cccc(c45)C3=O)CC2)ccc1C(C)C (configuration not stated)
